Test results reported in ChEMBL document CHEMBL1201862, “PubChem BioAssay data set” (2004).
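Results reflect a 48-hour exposure of cells in 96-well plates to compound at five concentrations. GI50 = concentration required for 50% inhibition of growth.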 Active and inactive are the calls of the source. No stated cut-off is given here; in the data, active = GI50 up to about 1.1 µM and inactive = higher.

How the values were obtained:
Assay in all cases: DTP human tumour cell line panel, 48 h
[1] = system: UACC-62
[2] = system: SR
[3] = system: CCRF-CEM
[4] = system: SF-539
[5] = system: SF-295
[6] = system: SN12C
[7] = system: SW-620
[8] = system: DU-145
[9] = system: PC-3
[10] = system: A549
[11] = system: IGROV-1
[12] = system: SNB-75
[13] = system: OVCAR-4
[14] = system: SK-MEL-28
[15] = system: NCI-H460
[16] = system: MDA-MB-435
[17] = system: HOP-92
[18] = system: Malme-3M
[19] = system: NCI-H23
[20] = system: A498

Measured: GI50

BrCCCCCOc1ccc(-c2c3ccccc3c(-c3ccc(OCCCCCBr)cc3)c3ccccc23)cc1
inactive: [1] > 100 µM | [2] > 100 µM | [3] > 100 µM | [4] > 100 µM | [5] > 100 µM | [6] > 100 µM | [7] > 100 µM | [8] > 100 µM | [9] > 100 µM | [10] > 100 µM | [11] > 100 µM | [12] 38.5 µM | [13] > 100 µM | [14] > 100 µM | [15] > 100 µM | [16] > 100 µM

C/C(=N\Nc1ccc([N+](=O)[O-])cc1[N+](=O)[O-])c1ccc2ccccc2n1
inactive: [1] 66.2 µM | [2] 97.9 µM | [17] > 100 µM | [4] 81.8 µM | [5] 52.6 µM | [18] > 100 µM | [6] > 100 µM | [7] > 100 µM | [8] > 100 µM | [9] > 100 µM | [19] > 100 µM | [10] 57.5 µM | [11] 28.1 µM | [12] 81.1 µM | [14] > 100 µM | [15] 33 µM | [16] > 100 µM

CCC1C(c2cccc(OC)c2O)c2cc3c(cc2OC1N1CCCC1)OCO3 (stereo not drawn)
inactive: [1] 17.5 µM | [2] 14.9 µM | [3] 12.6 µM | [4] 12.2 µM | [5] 16.8 µM | [6] 18.1 µM | [7] 12.2 µM | [8] > 10 µM | [9] 16.6 µM | [19] 26.4 µM | [10] 17.4 µM | [11] 14.9 µM | [12] 17.7 µM | [14] 16.3 µM | [15] 20.2 µM | [16] 3.85 µM

OCCSCCCSCCO
inactive: [1] > 100 µM | [2] 39.9 µM | [17] 27.1 µM | [3] 36.8 µM | [4] > 100 µM | [5] > 100 µM | [6] > 100 µM | [7] > 100 µM | [8] > 100 µM | [9] > 100 µM | [19] > 100 µM | [10] > 100 µM | [11] > 100 µM | [12] > 100 µM | [13] > 100 µM | [14] > 100 µM | [15] 34.8 µM | [16] > 10 µM

COC(=O)CNC(=O)c1cc(C)cc2c1Oc1c(cc(C)cc1C(=O)NCC(=O)OC)S2
inactive: [1] 34.1 µM | [2] 31 µM | [17] 22.3 µM | [3] 60.1 µM | [4] 21.3 µM | [5] 56.9 µM | [18] 17.9 µM | [6] 57.8 µM | [7] > 100 µM | [8] 45.4 µM | [9] > 100 µM | [19] 58.7 µM | [10] 37.6 µM | [11] > 100 µM | [12] > 100 µM | [13] > 100 µM | [14] 47.8 µM | [16] > 100 µM

CCOC(=O)C(C)c1nc2ccc(C(F)(F)F)cc2[nH]c1=O (stereo not drawn)
inactive: [1] 39.8 µM | [17] 43.9 µM | [3] 77.8 µM | [4] > 100 µM | [5] 45.5 µM | [18] 97.7 µM | [6] > 100 µM | [7] > 100 µM | [20] 34 µM | [8] 69.2 µM | [9] 36.9 µM | [19] 49.9 µM | [10] 73.5 µM | [12] 46.6 µM | [13] 42.5 µM | [14] > 100 µM | [15] 84.9 µM | [16] > 100 µM
